According to patent US20240208992A1, “MACROCYCLES AS CFTR MODULATORS” (Idorsia Pharmaceuticals Ltd, priority 2021, published 2024):

Target: human F508del-CFTR (Homo sapiens, UniProt P13569, DEL508-508)
Assay: F508del-CFTR cell surface expression (corrector activity), DiscoveRx ß-galactosidase complementation chemiluminescence assay in recombinant U2OS cell line;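 also: U2OS cells co-expressing ProLink-tagged F508del-CFTR and a membrane-anchored enzyme acceptor, where more surface CFTR restores β-galactosidase activity measured by chemiluminescence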
Conditions: U2OS cell line, 16h compound incubation; for EC50: EC50, F508del-CFTR cell surface expression, geomean values; for Emax: U2OS, in relation to the Emax of the corrector lumacaftor (=100%), arithmetic mean values

human F508del-CFTR, sequence (P13569 with tags, fused parts or gaps DEL508-508): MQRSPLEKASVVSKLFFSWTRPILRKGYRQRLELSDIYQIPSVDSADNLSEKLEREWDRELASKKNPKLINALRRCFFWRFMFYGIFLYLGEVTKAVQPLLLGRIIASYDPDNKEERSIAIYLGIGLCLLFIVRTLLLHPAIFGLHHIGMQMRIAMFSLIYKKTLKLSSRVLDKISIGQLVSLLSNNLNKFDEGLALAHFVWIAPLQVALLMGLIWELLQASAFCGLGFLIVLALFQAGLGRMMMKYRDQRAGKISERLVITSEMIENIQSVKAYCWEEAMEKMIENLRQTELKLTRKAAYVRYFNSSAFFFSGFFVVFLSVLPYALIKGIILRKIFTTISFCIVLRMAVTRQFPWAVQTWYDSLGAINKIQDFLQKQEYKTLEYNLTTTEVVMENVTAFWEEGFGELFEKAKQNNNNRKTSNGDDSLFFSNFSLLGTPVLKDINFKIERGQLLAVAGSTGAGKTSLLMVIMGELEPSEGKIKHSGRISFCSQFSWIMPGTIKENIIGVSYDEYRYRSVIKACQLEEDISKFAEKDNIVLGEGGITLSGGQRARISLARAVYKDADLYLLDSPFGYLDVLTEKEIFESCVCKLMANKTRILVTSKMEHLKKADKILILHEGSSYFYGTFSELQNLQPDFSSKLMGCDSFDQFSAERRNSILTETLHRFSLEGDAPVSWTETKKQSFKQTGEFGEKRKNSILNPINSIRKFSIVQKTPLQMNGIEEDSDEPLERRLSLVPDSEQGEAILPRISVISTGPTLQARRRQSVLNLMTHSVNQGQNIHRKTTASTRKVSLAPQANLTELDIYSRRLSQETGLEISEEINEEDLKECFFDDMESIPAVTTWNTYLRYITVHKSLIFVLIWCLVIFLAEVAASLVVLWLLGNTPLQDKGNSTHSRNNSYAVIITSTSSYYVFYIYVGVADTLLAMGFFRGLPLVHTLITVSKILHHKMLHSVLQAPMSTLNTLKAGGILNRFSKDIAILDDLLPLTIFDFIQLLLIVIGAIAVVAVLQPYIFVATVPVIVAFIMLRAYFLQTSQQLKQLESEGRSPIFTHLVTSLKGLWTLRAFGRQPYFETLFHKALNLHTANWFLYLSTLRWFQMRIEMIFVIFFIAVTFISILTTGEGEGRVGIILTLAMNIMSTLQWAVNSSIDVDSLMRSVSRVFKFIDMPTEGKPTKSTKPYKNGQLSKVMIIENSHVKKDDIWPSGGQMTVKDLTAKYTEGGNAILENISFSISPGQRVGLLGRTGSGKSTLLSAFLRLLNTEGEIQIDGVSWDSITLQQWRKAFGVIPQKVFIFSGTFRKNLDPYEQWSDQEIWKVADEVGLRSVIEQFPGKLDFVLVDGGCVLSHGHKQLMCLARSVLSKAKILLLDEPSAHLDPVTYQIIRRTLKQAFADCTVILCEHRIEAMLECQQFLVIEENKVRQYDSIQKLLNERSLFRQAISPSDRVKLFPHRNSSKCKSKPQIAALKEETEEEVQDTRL

`COc1cccc(CCNC(=O)[C@@H]2CC(=O)N(C)[C@@H](CC(C)C)C(=O)N(C)CC(=O)N[C@H](Cc3ccccc3)COc3cnc4c(F)cccc4c3C(=O)N2)c1` [Example 350, (3S,7S,13R)-13-benzyl-18-fluoro-7-isobutyl-N-(3-methoxyphenethyl)-6,9-dimethyl-1,5,8,11-tetraoxo-1,2,3,4,5,6,7,8,9,10,11,12,13,14-tetradecahydro-[1]oxa[4,7,10,14]tetraazacycloheptadecino[17,16-c]quinoline-3-carboxamide] was tested, and the EC50 was 546 nM and the Emax was 299%.

`COc1cccc(CCNC(=O)[C@@H]2CC(=O)N(C)[C@@H](CC(C)C)C(=O)N3CCCC[C@@H]3C(=O)N[C@H](Cc3ccccc3)COc3ccc4oc(C)nc4c3C(=O)N2)c1` [Example 351, (8S,12S,18aR,21R)-21-benzyl-12-isobutyl-N-(3-methoxyphenethyl)-4,11-dimethyl-6,10,13,19-tetraoxo-6,7,8,9,10,11,12,13,16,17,18,18a,19,20,21,22-hexadecahydro-15H-oxazolo[5′,4′:5,6]benzo[1,2-p]pyrido[2,1-f][1]oxa[4,7,10,14]tetraazacycloheptadecine-8-carboxamide] was tested, and the EC50 was 756 nM and the Emax was 127%.

Work on `COc1cccc(CCNC(=O)[C@@H]2CC(=O)N(C)[C@@H](CC(C)C)C(=O)N3CCN(C(C)C)C[C@@H]3C(=O)N[C@H](Cc3ccccc3)COc3ccc4nc(C)oc4c3C(=O)N2)c1` [Example 352, (8S,12S,18aR,21R)-21-benzyl-12-isobutyl-17-isopropyl-N-(3-methoxyphenethyl)-4,11-dimethyl-6,10,13,19-tetraoxo-6,7,8,9,10,11,12,13,16,17,18,18a,19,20,21,22-hexadecahydro-15H-oxazolo[4′,5′:5,6]benzo[1,2-p]pyrazino[2,1-f][1]oxa[4,7,10,14]tetraazacycloheptadecine-8-carboxamide] yielded an EC50 of 297 nM and an Emax of 262%.

For `COc1cccc(CCNC(=O)[C@@H]2CC(=O)N(C)[C@@H](CC(C)C)C(=O)N3CCN(C(C)C)C[C@@H]3C(=O)N[C@H](Cc3ccccc3)COc3ccc4ncn(C)c4c3C(=O)N2)c1` [Example 353, (8S,12S,18aR,21R)-21-benzyl-12-isobutyl-17-isopropyl-N-(3-methoxyphenethyl)-5,11-dimethyl-6,10,13,19-tetraoxo-6,7,8,9,10,11,12,13,16,17,18,18a,19,20,21,22-hexadecahydro-5H,15H-imidazo[4′,5′:5,6]benzo[1,2-p]pyrazino[2,1-f][1]oxa[4,7,10,14]tetraazacycloheptadecine-8-carboxamide], the EC50 was 513 nM and the Emax was 177%.

For `COCCN1CCN2C(=O)[C@H](CC(C)C)N(C)C(=O)C[C@@H](C(=O)NCCc3cccc(OC)c3)NC(=O)c3c(ccc4ccccc34)OC[C@@H](Cc3ccccc3)NC(=O)[C@H]2C1` [Example 354, (4aR,7R,18S,22S)-7-benzyl-22-isobutyl-3-(2-methoxyethyl)-N-(3-methoxyphenethyl)-21-methyl-5,16,20,23-tetraoxo-2,3,4,4a,5,6,7,8,16,17,18,19,20,21,22,23-hexadecahydro-1H-naphtho[1,2-p]pyrazino[2,1-f][1]oxa[4,7,10,14]tetraazacycloheptadecine-18-carboxamide], the EC50 was 231 nM and the Emax was 321%.

Compound `COc1cccc(CCNC(=O)[C@@H]2CC(=O)N(C)[C@@H](CC(C)C)C(=O)N3CCN(C4CCC4)C[C@@H]3C(=O)N[C@H](Cc3ccccc3)COc3ccc4ccccc4c3C(=O)N2)c1` [Example 355, (4aR,7R,18S,22S)-7-benzyl-3-cyclobutyl-22-isobutyl-N-(3-methoxyphenethyl)-21-methyl-5,16,20,23-tetraoxo-2,3,4,4a,5,6,7,8,16,17,18,19,20,21,22,23-hexadecahydro-1H-naphtho[1,2-p]pyrazino[2,1-f][1]oxa[4,7,10,14]tetraazacycloheptadecine-18-carboxamide] has an EC50 of 87 nM and an Emax of 307%.

Compound `COc1cccc(CCNC(=O)[C@@H]2CC(=O)N(C)[C@@H](CC(C)C)C(=O)N3CCN(C4CC4)C[C@@H]3C(=O)N[C@H](Cc3ccccc3)COc3ccc4ccccc4c3C(=O)N2)c1` [Example 356, (4aR,7R,18S,22S)-7-benzyl-3-cyclopropyl-22-isobutyl-N-(3-methoxyphenethyl)-21-methyl-5,16,20,23-tetraoxo-2,3,4,4a,5,6,7,8,16,17,18,19,20,21,22,23-hexadecahydro-1H-naphtho[1,2-p]pyrazino[2,1-f][1]oxa[4,7,10,14]tetraazacycloheptadecine-18-carboxamide] has an EC50 of 167 nM and an Emax of 353%.

Compound `COc1cccc(CCNC(=O)[C@@H]2CC(=O)N(C)[C@@H](CC(C)C)C(=O)N3CCN(C4CC4)C[C@H]3C(=O)N[C@H](Cc3ccccc3)COc3ccc4ccccc4c3C(=O)N2)c1` [Example 357, (4aS,7R,18S,22S)-7-benzyl-3-cyclopropyl-22-isobutyl-N-(3-methoxyphenethyl)-21-methyl-5,16,20,23-tetraoxo-2,3,4,4a,5,6,7,8,16,17,18,19,20,21,22,23-hexadecahydro-1H-naphtho[1,2-p]pyrazino[2,1-f][1]oxa[4,7,10,14]tetraazacycloheptadecine-18-carboxamide] has an EC50 of 475 nM and an Emax of 124%.

`CN1C(=O)C[C@@H](C(=O)NCCc2ccc3c(c2)OCO3)NC(=O)c2c(ccc3ccccc23)OC[C@@H](Cc2ccccc2)NC(=O)CN(CC[C@@H]2CCCCO2)C(=O)[C@@H]1CC1CC1` [Example 358, (3S,7S,13R)-N-(2-(benzo[d][1,3]dioxol-5-yl)ethyl)-13-benzyl-7-(cyclopropylmethyl)-6-methyl-1,5,8,11-tetraoxo-9-(2-((S)-tetrahydro-2H-pyran-2-yl)ethyl)-1,2,3,4,5,6,7,8,9,10,11,12,13,14-tetradecahydronaphtho[1,2-p][1]oxa[4,7,10,14]tetraazacycloheptadecine-3-carboxamide] gave an EC50 of 411 nM and an Emax of 171%.

In the case of `CN1C(=O)C[C@@H](C(=O)NCCc2ccc3c(c2)OCO3)NC(=O)c2c(ccc3ccccc23)OC[C@@H](Cc2ccccc2)NC(=O)CN(CC[C@H]2CCCCO2)C(=O)[C@@H]1CC1CC1` [Example 359, (3S,7S,13R)-N-(2-(benzo[d][1,3]dioxol-5-yl)ethyl)-13-benzyl-7-(cyclopropylmethyl)-6-methyl-1,5,8,11-tetraoxo-9-(2-((R)-tetrahydro-2H-pyran-2-yl)ethyl)-1,2,3,4,5,6,7,8,9,10,11,12,13,14-tetradecahydronaphtho[1,2-p][1]oxa[4,7,10,14]tetraazacycloheptadecine-3-carboxamide], the EC50 is reported as 318 nM and the Emax is reported as 144%.

Work on `CN1C(=O)C[C@@H](C(=O)NCCc2ccc3c(c2)OCO3)NC(=O)c2c(ccc3ccccc23)OC[C@@H](Cc2ccccc2)NC(=O)CN(CC[C@@H]2CCCCO2)C(=O)[C@@H]1CC1CCC1` [Example 360, (3S,7S,13R)-N-(2-(benzo[d][1,3]dioxol-5-yl)ethyl)-13-benzyl-7-(cyclobutylmethyl)-6-methyl-1,5,8,11-tetraoxo-9-(2-((S)-tetrahydro-2H-pyran-2-yl)ethyl)-1,2,3,4,5,6,7,8,9,10,11,12,13,14-tetradecahydronaphtho[1,2-p][1]oxa[4,7,10,14]tetraazacycloheptadecine-3-carboxamide] yielded an EC50 of 184 nM and an Emax of 224%.

`CN1C(=O)C[C@@H](C(=O)NCCc2ccc3c(c2)OCO3)NC(=O)c2c(ccc3ccccc23)OC[C@@H](Cc2ccccc2)NC(=O)CN(CC[C@H]2CCCCO2)C(=O)[C@@H]1CC1CCC1` [Example 361, (3S,7S,13R)-N-(2-(benzo[d][1,3]dioxol-5-yl)ethyl)-13-benzyl-7-(cyclobutylmethyl)-6-methyl-1,5,8,11-tetraoxo-9-(2-((R)-tetrahydro-2H-pyran-2-yl)ethyl)-1,2,3,4,5,6,7,8,9,10,11,12,13,14-tetradecahydronaphtho[1,2-p][1]oxa[4,7,10,14]tetraazacycloheptadecine-3-carboxamide] showed an EC50 of 264 nM and an Emax of 183%.

With `CC(C)C[C@H]1C(=O)N(CC[C@@H]2CCCCO2)CC(=O)N[C@H](Cc2ccccc2)COc2ccc3ccccc3c2C(=O)N[C@H](C(=O)NCCc2ccc3c(c2)OCO3)CC(=O)N1C` [Example 362, (3S,7S,13R)-N-(2-(benzo[d][1,3]dioxol-5-yl)ethyl)-13-benzyl-7-isobutyl-6-methyl-1,5,8,11-tetraoxo-9-(2-((S)-tetrahydro-2H-pyran-2-yl)ethyl)-1,2,3,4,5,6,7,8,9,10,11,12,13,14-tetradecahydronaphtho[1,2-p][1]oxa[4,7,10,14]tetraazacycloheptadecine-3-carboxamide] the EC50 was 153 nM and the Emax was 247%.

Work on `CC(C)C[C@H]1C(=O)N(CC[C@H]2CCCCO2)CC(=O)N[C@H](Cc2ccccc2)COc2ccc3ccccc3c2C(=O)N[C@H](C(=O)NCCc2ccc3c(c2)OCO3)CC(=O)N1C` [Example 363] yielded an EC50 of 252 nM and an Emax of 230%.

For `COc1cccc(CCNC(=O)[C@@H]2CC(=O)N(C)[C@@H](CC(C)C)C(=O)N3CCN(CC(C)C)C[C@@H]3C(=O)N[C@H](Cc3ccccc3)COc3ccc4ncn(C)c4c3C(=O)N2)c1` [Example 364, (8S,12S,18aR,21R)-21-benzyl-12,17-diisobutyl-N-(3-methoxyphenethyl)-5,11-dimethyl-6,10,13,19-tetraoxo-6,7,8,9,10,11,12,13,16,17,18,18a,19,20,21,22-hexadecahydro-5H,15H-imidazo[4′,5′:5,6]benzo[1,2-p]pyrazino[2,1-f][1]oxa[4,7,10,14]tetraazacycloheptadecine-8-carboxamide], the EC50 was 264 nM and the Emax was 201%.

In the case of `COc1cccc(CCNC(=O)[C@@H]2CC(=O)N(C)[C@@H](CC(C)C)C(=O)N3CCCC[C@@H]3C(=O)N[C@H](Cc3ccccc3)COc3cnc4ccccc4c3C(=O)N2)c1` [Example 365, (9S,13S,19aR,22R)-22-benzyl-13-isobutyl-N-(3-methoxyphenethyl)-12-methyl-7,11,14,20-tetraoxo-7,8,9,10,11,12,13,14,17,18,19,19a,20,21,22,23-hexadecahydro-16H-pyrido[2′,1′:6,7][1]oxa[4,7,10,14]tetraazacycloheptadecino[17,16-c]quinoline-9-carboxamide], the EC50 is reported as 398 nM and the Emax is reported as 387%.
